According to patent US4315017A, “Triazole derivatives” (priority 1978, dated 1982):
Values joined by “and” are separate entries in the source; they are usually repeats but may differ in a detail not shown here. Equal values may be shown once.

Tests used:
Type in all cases: in vivo
[1] = tested on: oriental cockroaches (Blatta orientalis); test: Synergistic action on oriental cockroaches, treated jar bottom; details: single substance; kill rate after 48 hours
Protocol: Synergistic action on oriental cockroaches (Blatta orientalis)
After the solvent has evaporated, 5 adult cockroaches (Blatta orientalis) are placed in each jar, and the kill rate is determined after 48 hours.
The application rates are in logarithmic progression and permit a dose-effect curve to be drawn; the LD50 is determined graphically and serves as a basis for assessment.

[2] = tested on: houseflies (Musca domestica); test: Synergistic action on houseflies; continuous contact (Petri dish); details: single substance; kill rate after 4 hours
Protocol: Synergistic action on houseflies (Musca domestica); continuous contact
Both covers and bottoms of Petri dishes 10 cm in diameter are lined with a total per dish of 2 ml of acetonic solutions of the active ingredients. After the solvent has evaporated (about 30 mins.), 10 flies are introduced into each dish.
The kill rate is determined after 4 hours and the LD50 is determined graphically.

[3] = tested on: granery weevils (Sitophilus granarius); test: Synergistic action on granary weevils (treated Petri dishes); details: single substance; 4 hours exposure, kill rate after 24 hours
Protocol: Synergistic action on granery weevils (Sitophilus granarius)
Petri dishes 10 cm in diameter are lined with acetonic solutions of the active ingredients. After the solvent has evaporated, 50 granary weevils are placed in each dish.
After 4 hours, the weevils are transferred to untreated vessels. The kill rate is determined after 24 hours, by counting how many weevils are, after this period has elapsed, capable of leaving an untreated cardboard dish (40 mm in diameter, 10 mm high) within 60 minutes.

[4] = tested on: houseflies (Musca domestica); test: Synergistic action on houseflies, dip experiment; details: single substance; active ingredient concentration in %
Protocol: Synergistic action on houseflies (Musca domestica; dip experiment)
100 ml of aqueous active ingredient formulations (active ingredient concentration in %) is poured over 20 adult houseflies (Musca domestica) on a filter in a nutsch (15 cm in diameter). A gauze lid prevents the animals from surfacing during treatment. After 5 seconds the formulation is filtered off and the flies are transferred to clean Petri dishes (10 cm in diameter) on the bottom of which a round filter paper has been placed.
The animals in supine position are counted after 4 and 24 hours.

[5] = tested on: houseflies (Musca domestica); test: Contact action on houseflies (application to ventral abdomen); details: single substance; kill rate after 4 hours
Protocol: Contact action on houseflies (Musca domestica)
1 μl of the active ingredient dissolved in acetone is administered to the ventral abdomen of 4-day old imagoes under slight CO2 narcosis. 20 animals treated in the same way are then placed in a cellophane bag having a volume of approximately 500 ml.
After 4 hours the kill rate is determined, a dose-mortality curve is drawn from the different concentrations, and the LD50 is worked out.

## 2,5-diethylphenyl-N-methylcarbamate [Fenethcarb, reference compound]
[1]
  LD 50: 0.45 mg

## C=CCC1=C(C)C(OC(=O)C2C(C=C(C)C)C2(C)C)CC1=O (mixture of isomers) [Allethrin, DL-2-allyl-3-methylcyclopenten-2-on-(1)-yl-(4)-DL-cis,trans-chrysanthemate, reference compound]
[1]
  LD 50: 0.11 mg

## CCOC(=O)CC(SP(=S)(OC)OC)C(=O)OCC (centres unmarked) [Malathion, reference compound]
[1]
  LD 50: 0.12 mg

## ClC(Cn1cncn1)c1ccccc1 (centres unmarked) [No. 1]
[1]
  LD 50: > 5.0 mg
[2]
  LD 50: > 2.0 mg
[3]
  LD 50: > 2 mg and > 1 mg
[4]
  LD 50 after 4 hours: 0.085%
  LD 50 after 24 hours: 0.05%

## ClC(Cn1cncn1)c1ccccc1 (centres unmarked) [No. 2]
[1]
  LD 50: > 5.0 mg
[2]
  LD 50: 0.2 mg
[4]
  LD 50 after 4 hours: > 0.2%
  LD 50 after 24 hours: 0.1%

## Clc1ccc(C=Cn2cncn2)c(Cl)c1 [No. 3]
[1]
  LD 50: > 5.0 mg
[4]
  LD 50 after 4 hours: 0.2%
  LD 50 after 24 hours: 0.05%

## Fc1ccc(C=Cn2cncn2)cc1 [No. 4]
[1]
  LD 50: > 5.0 mg
[2]
  LD 50: > 2.0 mg

## c1ccc(CCCn2cncn2)cc1 [No. 5]
[1]
  LD 50: > 2.0 mg
[5]
  LD 50: > 10 μg/fly
[3]
  LD 50: > 2 mg
[4]
  LD 50 after 4 hours: > 0.2%
  LD 50 after 24 hours: 0.05%

## C(=Cc1ccccc1)Cn1cncn1 [No. 6]
[1]
  LD 50: 9.0 mg
[3]
  LD 50: > 2 mg
[4]
  LD 50 after 4 hours: > 0.2%
  LD 50 after 24 hours: 0.07%

## CC(c1ccccc1)n1cncn1 (centres unmarked) [No. 7]
[1]
  LD 50: > 2.0 mg

## C=C(Cn1cncn1)c1ccccc1 [No. 8]
[1]
  LD 50: 9.0 mg
[3]
  LD 50: > 2 mg

## Cc1ccc(Cn2cncn2)cc1 [No. 9]
[1]
  LD 50: > 2.0 mg
[3]
  LD 50: > 4 mg

## CCc1ccc(Cn2cncn2)cc1 [No. 10]
[1]
  LD 50: > 2.0 mg
[3]
  LD 50: > 2 mg

## CC(C)(C)c1ccc(Cn2cncn2)cc1 [No. 11]
[1]
  LD 50: > 10.0 mg
[3]
  LD 50: > 2 mg

## Cc1nc(N(C)C)nc(OC(=O)N(C)C)c1C [Pirimicarb, 2-dimethylamino-5,6-dimethyl-4-pyrimidinyl-N,N-dimethylcarbamate, reference compound]
[1]
  LD 50: > 30 mg
[4]
  LD 50 after 4 hours: 0.05%
  LD 50 after 24 hours: 0.04%
